Reference: PMC6980389 (Chembiochem : a European journal of chemical biology, 2018)
Like-named read-outs stand apart in the source and are kept apart here.

What was measured:
[1] = system: Toledo cells; test: Growth of Toledo cells; assay type: cell-based; details: 72 h; for IC50: read-out: IC50, growth inhibition of Toledo cells
[2] = system: U937 leukemia cells; test: U937 cell attachment at 60 h, alone or with 10 nM PMA; assay type: cell-based; details: ligand alone
[3] = system: U937 leukemia cells; details: proliferation and attachment assays; ref 12b-e; cited from earlier work
[4] = biological target: PKCδ (Homo sapiens, UniProt Q05655); test: Downregulation of PKCδ in U937 cells; assay type: cell-based; details: 24 h
[5] = biological target: PKCβII (Homo sapiens, UniProt P05771); test: Downregulation of PKCβII in U937 cells; assay type: cell-based; details: 24 h
[6] = biological target: mCherry PKCδ (Homo sapiens, UniProt Q05655); test: Translocation of mCherry-tagged PKCδ in LNCaP cells; assay type: cell-based; details: 1 μM ligand
mCherry PKCδ, sequence (Q05655 whole entry): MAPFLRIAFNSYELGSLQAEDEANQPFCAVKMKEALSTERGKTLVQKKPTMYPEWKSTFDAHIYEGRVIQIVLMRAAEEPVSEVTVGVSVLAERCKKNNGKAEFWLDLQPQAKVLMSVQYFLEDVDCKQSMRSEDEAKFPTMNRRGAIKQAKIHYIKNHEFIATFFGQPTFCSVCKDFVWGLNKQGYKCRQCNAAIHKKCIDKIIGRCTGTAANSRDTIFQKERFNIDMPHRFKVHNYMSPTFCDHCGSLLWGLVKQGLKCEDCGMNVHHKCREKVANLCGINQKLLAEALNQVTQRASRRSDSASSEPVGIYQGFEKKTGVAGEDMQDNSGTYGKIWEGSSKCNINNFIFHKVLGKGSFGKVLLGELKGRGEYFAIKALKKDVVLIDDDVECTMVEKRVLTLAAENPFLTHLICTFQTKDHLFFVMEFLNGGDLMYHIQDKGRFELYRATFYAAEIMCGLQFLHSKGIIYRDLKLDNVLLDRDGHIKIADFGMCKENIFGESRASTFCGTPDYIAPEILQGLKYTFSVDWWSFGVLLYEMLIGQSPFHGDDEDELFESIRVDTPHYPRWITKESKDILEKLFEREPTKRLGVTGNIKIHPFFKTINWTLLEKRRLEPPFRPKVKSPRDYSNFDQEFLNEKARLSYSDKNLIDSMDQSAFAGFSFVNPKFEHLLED

PKCβII, sequence (P05771 1-673 isoform P05771-2): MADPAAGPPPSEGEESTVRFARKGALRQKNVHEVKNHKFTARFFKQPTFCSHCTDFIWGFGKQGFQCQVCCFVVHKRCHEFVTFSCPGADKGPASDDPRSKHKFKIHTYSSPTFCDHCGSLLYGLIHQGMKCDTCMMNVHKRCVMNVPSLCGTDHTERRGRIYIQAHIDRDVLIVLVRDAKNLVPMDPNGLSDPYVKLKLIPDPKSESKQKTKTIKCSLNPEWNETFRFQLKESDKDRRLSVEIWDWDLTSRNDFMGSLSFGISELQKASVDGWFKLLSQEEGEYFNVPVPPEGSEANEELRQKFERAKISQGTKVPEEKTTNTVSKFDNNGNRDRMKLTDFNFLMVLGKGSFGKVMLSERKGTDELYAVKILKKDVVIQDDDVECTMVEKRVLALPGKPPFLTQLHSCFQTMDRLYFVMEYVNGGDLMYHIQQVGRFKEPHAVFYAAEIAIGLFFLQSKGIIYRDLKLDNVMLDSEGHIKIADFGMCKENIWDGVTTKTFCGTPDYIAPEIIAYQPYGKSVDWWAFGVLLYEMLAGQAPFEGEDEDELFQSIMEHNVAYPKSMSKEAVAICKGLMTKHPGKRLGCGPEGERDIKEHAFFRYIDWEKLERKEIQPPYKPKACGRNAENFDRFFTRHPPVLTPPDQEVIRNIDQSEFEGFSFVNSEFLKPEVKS
PKCδ, sequence (Q05655 whole entry): as the sequence (Q05655 whole entry) above

| SMILES | IC50 [1] [nM] | Effect on attachment of U937 cells [2] | Pattern of biological activity in U937 cells (PMA-like or bryostatin-like) [3] | Downregulation of PKCδ [4] | Effect on Toledo cell growth [1] | IC50 ([1]; Homo sapiens, Toledo) [nM] | Downregulation of PKCβII [5] | Translocation of PKCδ [6] |
| --- | --- | --- | --- | --- | --- | --- | --- | --- |
| C=C1C[C@@H]2C[C@@H]3CC(=C)C[C@H](/C=C/C(C)(C)[C@]4(O)O[C@@H](C/C(=C\C(=O)OC)[C@@H]4OC(=O)/C=C/C=C/CCC)C[C@H]([C@@H](C)O)OC(=O)C[C@H](O)C[C@H](C1)O2)O3 [Merle 23] | 0.33 ± 0.11 | induced attachment | largely PMA-like | less potent than Merle 45 for downregulation but again showed no protection of PKCδ downregulation at high doses | – | – | – | – |
| C=C1C[C@H]2C[C@H]3C[C@@H](OC(C)=O)C[C@@H](C[C@@H](O)CC(=O)O[C@@H]([C@@H](C)O)C[C@@H]4C/C(=C\C(=O)OC)[C@H](OC(=O)CCCCCCC)[C@@](O)(O4)C(C)(C)/C=C/[C@@H](C1)O2)O3 [Merle 27] | – | – | PMA-like | – | – | – | – | – |
| C=C1C[C@H]2CC3(O)O[C@H](C[C@@H](O)CC(=O)O[C@@H]([C@@H](C)O)C[C@@H]4C/C(=C\C(=O)OC)[C@H](OC(=O)/C=C/C=C/CCC)[C@@](O)(O4)C(C)(C)/C=C/[C@@H](C1)O2)C[C@H](OC(C)=O)C3(C)C [Merle 28] | 0.111 ± 0.009 | did not inhibit proliferation (Figure 1) or induce attachment | bryostatin-like | – | – | – | – | – |
| CCCCCCCCCCCCCC(=O)O[C@@H]1[C@@H](C)[C@@]2(O)[C@@H](C=C(CO)C[C@]3(O)C(=O)C(C)=C[C@@H]23)[C@@H]2C(C)(C)[C@]12OC(C)=O [PMA, phorbol 12-myristate 13-acetate] | – | induced attachment | – | – | inhibited Toledo cell growth | 0.57 ± 0.27 | downregulated PKCβII at 24 h | characteristic translocation of PKCδ to the plasma and nuclear membranes, as well as to internal membranes |
| CCC/C=C/C=C/C(=O)O[C@H]1/C(=C/C(=O)OC)C[C@H]2C[C@H]([C@@H](C)O)OC(=O)C[C@H](O)C[C@@H]3C[C@H](OC(C)=O)C(C)(C)[C@](O)(C[C@@H]4C/C(=C/C(=O)OC)C[C@H](/C=C/C(C)(C)[C@]1(O)O2)O4)O3 [bryostatin 1] | – | did not inhibit proliferation (Figure 1) or induce attachment | – | – | inhibited Toledo cell growth | 0.091 ± 0.026 | – | – |
